The record followed here is PubChem BioAssay AID328 (DTP/NCI, 2004).

The experiment has as its system BDF1 mice, P388 leukemia ip, median survival T/C. The experiment can be described thus: NCI In Vivo Anticancer Drug Screen. Data for tumor model P388 Leukemia (intraperitoneal) in B6D2F1 (BDF1) mice. The conditions noted are these: endpoint: median survival time, higher = longer survival. In a few lines:
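Antitumour effect was judged in vivo: survival in drug-treated mice, normalised to that of vehicle-dosed controls, gives the reported T/C.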

[1] abbreviates: dose: 50.0 mg/kg/injection, schedule: Q01DX009 (ip), vehicle: saline.
Setting [2] is: dose: 50.0 mg/kg/injection, schedule: Q01DX009 (ip), vehicle: saline with Tween-80.
[3] abbreviates: dose: 100.0 mg/kg/injection, schedule: Q01DX009 (ip), vehicle: saline with Tween-80.
The mark [4] stands for this setting: dose: 200.0 mg/kg/injection, schedule: Q01DX009 (ip), vehicle: saline with Tween-80.
[5] abbreviates: dose: 100.0 mg/kg/injection, schedule: Q04DX003 (ip), vehicle: saline with Tween-80.
[6] abbreviates: dose: 200.0 mg/kg/injection, schedule: Q04DX003 (ip), vehicle: saline with Tween-80.
Where [7] appears, read: dose: 100.0 mg/kg/injection, schedule: Q01DX001 (ip), vehicle: saline with Tween-80.
The mark [8] stands for this setting: dose: 400.0 mg/kg/injection, schedule: Q04DX003 (ip), vehicle: saline with Tween-80.

“And” between values parts separate entries of the source, which are not always exact repeats. Equal values may be shown once. Toxic doses and inconclusive results are not listed.

Turning to `N=C(N)c1ccc(C(=N)N)cc1`, the T/C was 100 % of control (dose: 25.0 mg/kg/injection, schedule: Q01DX009 (ip), vehicle: water); 94 % of control (dose: 50.0 mg/kg/injection, schedule: Q01DX009 (ip), vehicle: water); 95 % of control (dose: 50.0 mg/kg/injection, schedule: Q04DX003 (ip), vehicle: water); 100 % of control (dose: 100.0 mg/kg/injection, schedule: Q01DX009 (ip), vehicle: water); 100 % of control (dose: 100.0 mg/kg/injection, schedule: Q04DX003 (ip), vehicle: water); 100 % of control (dose: 200.0 mg/kg/injection, schedule: Q04DX003 (ip), vehicle: water).
For `CCn1c(O)c(C=N)c(=O)[nH]c1=O`, the T/C was 100 % of control under setting [1]; 103 % of control (dose: 50.0 mg/kg/injection, schedule: Q04DX003 (ip), vehicle: saline); 109 % of control (dose: 100.0 mg/kg/injection, schedule: Q01DX009 (ip), vehicle: saline); 100 % of control (dose: 100.0 mg/kg/injection, schedule: Q04DX003 (ip), vehicle: saline); 109 % of control (dose: 200.0 mg/kg/injection, schedule: Q01DX009 (ip), vehicle: saline); 115 % of control (dose: 200.0 mg/kg/injection, schedule: Q04DX003 (ip), vehicle: saline).
Turning to `COC(=O)CCC(C)C1CCC2C3CCC4CC(SC(=N)N)CCC4(C)C3CC(O)C12C` (stereo not drawn), the T/C runs as follows: under setting [2], 91 % of control; under setting [3], 89 % of control; under setting [4], 89 % of control.
For the molecule `CC(Cc1ccccc1)CC(C(=O)O)C(=O)O` (stereo not drawn), the T/C runs as follows: under setting [5], 100 % of control; under setting [6], 99 % of control.
Turning to `CN(C)[C@@H]1C(=O)C(C(=O)NCNCCCC(=O)O)=C(O)[C@@]2(O)C(=O)C3=C(O)c4c(O)cccc4[C@@](C)(O)[C@H]3C[C@@H]12`, the T/C is, setting by setting: under setting [3], 95 % of control; under setting [4], 104 % of control; (dose: 400.0 mg/kg/injection, schedule: Q01DX009 (ip), vehicle: saline with Tween-80) 104 % of control.
As for `O=C(C1CC2CCC1C2)C1CC2CCC1C2` (stereo not drawn), the T/C is, setting by setting: (dose: 100.0 mg/kg/injection, schedule: Q01DX009 (ip), vehicle: other) 95 % of control; (dose: 100.0 mg/kg/injection, schedule: Q04DX003 (ip), vehicle: Klucel (hydroxypropylcellulose) (HPC)) 100 % of control; (dose: 200.0 mg/kg/injection, schedule: Q04DX003 (ip), vehicle: Klucel (hydroxypropylcellulose) (HPC)) 108 % of control; (dose: 400.0 mg/kg/injection, schedule: Q04DX003 (ip), vehicle: Klucel (hydroxypropylcellulose) (HPC)) 104 % of control.
Regarding `CC(C)(C)[Si](OC(=O)N(CCCl)CCCl)(c1ccccc1)c1ccccc1`, the T/C runs as follows: (dose: 50.0 mg/kg/injection, schedule: Q01DX001 (ip), vehicle: saline with Tween-80) 100 % of control; under setting [7], 118 % of control and 124 % of control.
As for `NNC(=O)[C@H]1CC[C@H]1C(=O)NN`, the T/C is 95 % of control (dose: 25.0 mg/kg/injection, schedule: Q01DX009 (ip), vehicle: saline) and 109 % of control under setting [1].
Turning to `CC(=O)C(=O)N1Cc2cc3ccccc3nc2C1`, the T/C is 100 % of control (dose: 50.0 mg/kg/injection, schedule: Q01DX001 (ip), vehicle: saline sonified); 100 % of control (dose: 100.0 mg/kg/injection, schedule: Q01DX001 (ip), vehicle: saline sonified); 100 % of control (dose: 200.0 mg/kg/injection, schedule: Q01DX001 (ip), vehicle: saline sonified).
For `CC(C)(O)c1ccccc1S(=O)c1ccc(Cl)cc1` (stereo not drawn), the T/C is 100 % of control under setting [2], 101 % of control under setting [3] and 99 % of control under setting [4].
In the case of `O=C(NO)c1ccc([N+](=O)[O-])cc1`, the T/C by setting is: (dose: 240.0 mg/kg/injection, schedule: Q01DX010 (ip), vehicle: water) 92 % of control; (dose: 270.0 mg/kg/injection, schedule: Q01DX010 (ip), vehicle: water) 90 % of control and 113 % of control; (dose: 360.0 mg/kg/injection, schedule: Q01DX010 (ip), vehicle: water) 123 % of control.
On to `CB1NN=C(C)c2ccsc21`, for which the T/C was 105 % of control (dose: 6.25 mg/kg/injection, schedule: Q01DX009 (ip), vehicle: saline with Tween-80); 91 % of control (dose: 12.5 mg/kg/injection, schedule: Q01DX009 (ip), vehicle: saline with Tween-80); 95 % of control (dose: 25.0 mg/kg/injection, schedule: Q01DX009 (ip), vehicle: saline with Tween-80).
With `COc1cc([C@@H]2c3cc4c(cc3[C@@H](OC3OC5CO[C@@H](c6cccs6)OC5C(O)C3O)[C@H]3COC(=O)[C@H]23)OCO4)cc(OC)c1O` (stereo partly drawn), the T/C by setting is: (dose: 0.25 mg/kg/injection, schedule: Q01DX010 (ip), vehicle: saline) 166 % of control and 175 % of control; (dose: 0.5 mg/kg/injection, schedule: Q01DX010 (ip), vehicle: saline) 179 % of control and 183 % of control; (dose: 1.0 mg/kg/injection, schedule: Q01DX010 (ip), vehicle: saline) 166 % of control and 216 % of control; (dose: 2.0 mg/kg/injection, schedule: Q01DX010 (ip), vehicle: saline) 233 % of control and 250 % of control; (dose: 2.88 mg/kg/injection, schedule: Q04DX003 (ip), vehicle: saline) 300 % of control; (dose: 3.24 mg/kg/injection, schedule: Q04DX003 (ip), vehicle: clinical formulation) 327 % of control. Moreover, the T/C was 100 % of control (dose: 4.0 mg/kg/injection, schedule: Q01DX010 (ip), vehicle: saline); 596 % of control (dose: 4.8 mg/kg/injection, schedule: Q04DX003 (ip), vehicle: saline); 557 % of control (dose: 5.4 mg/kg/injection, schedule: Q04DX003 (ip), vehicle: clinical formulation); 378 % of control (dose: 8.0 mg/kg/injection, schedule: Q04DX003 (ip), vehicle: saline); 557 % of control (dose: 9.0 mg/kg/injection, schedule: Q04DX003 (ip), vehicle: clinical formulation); 240 % of control (dose: 13.33 mg/kg/injection, schedule: Q04DX003 (ip), vehicle: saline). For the same molecule, the T/C (dose: 15.0 mg/kg/injection, schedule: Q04DX003 (ip), vehicle: clinical formulation) was 558 % of control.
Regarding `COC(C)(OC)C(N)=O`, the T/C reads like this: under setting [5], 100 % of control; under setting [6], 100 % of control; under setting [8], 104 % of control.
For `C(=Nc1ccc2c(c1)Cc1ccccc1-2)c1ccccc1`, the T/C by setting is: (dose: 50.0 mg/kg/injection, schedule: Q01DX009 (ip), vehicle: Klucel (hydroxypropylcellulose) (HPC)) 90 % of control; (dose: 100.0 mg/kg/injection, schedule: Q01DX009 (ip), vehicle: Klucel (hydroxypropylcellulose) (HPC)) 109 % of control; (dose: 200.0 mg/kg/injection, schedule: Q01DX009 (ip), vehicle: Klucel (hydroxypropylcellulose) (HPC)) 100 % of control.
As to `O=[N+]([O-])C(Cl)(Cl)C(Cl)(Cl)[N+](=O)[O-]`, the T/C (dose: 1.25 mg/kg/injection, schedule: Q01DX009 (ip), vehicle: other) was 100 % of control; the T/C (dose: 2.5 mg/kg/injection, schedule: Q01DX009 (ip), vehicle: other) was 100 % of control; the T/C (dose: 2.5 mg/kg/injection, schedule: Q04DX003 (ip), vehicle: other) is 87 % of control; the T/C (dose: 5.0 mg/kg/injection, schedule: Q01DX009 (ip), vehicle: other) is 95 % of control; the T/C (dose: 5.0 mg/kg/injection, schedule: Q04DX003 (ip), vehicle: other) was 104 % of control.
Regarding `O=C1c2ccccc2CC1(Cl)Cl`, the T/C under setting [7] is 101 % of control; the T/C (dose: 200.0 mg/kg/injection, schedule: Q01DX001 (ip), vehicle: saline with Tween-80) is 96 % of control; the T/C (dose: 400.0 mg/kg/injection, schedule: Q01DX001 (ip), vehicle: saline with Tween-80) was 101 % of control.
On to `CCCCCCCCC(C(=O)c1ccccc1)C(O)(C(F)(F)F)C(F)(F)F` (stereo not drawn), for which the T/C by setting is: under setting [2], 90 % of control; under setting [3], 95 % of control; under setting [5], 95 % of control; under setting [4], 109 % of control; under setting [6], 115 % of control; under setting [8], 115 % of control.
As to `CC(C)C1(C(=O)NNC(=O)CCCc2ccc(N(CCCl)CCCl)cc2)OC2(O)CCCCCN2C1=O` (stereo not drawn), the T/C (dose: 50.0 mg/kg/injection, schedule: Q04DX003 (ip), vehicle: other) is 175 % of control and the T/C (dose: 100.0 mg/kg/injection, schedule: Q04DX003 (ip), vehicle: other) was 220 % of control.
On to `O=C1C(=C2CCCCC2)SC(=S)N1c1ccccc1`, for which the T/C under setting [2] is 106 % of control, the T/C under setting [3] was 103 % of control and the T/C under setting [4] was 103 % of control.
